Target: T1, human OX2 receptor (Homo sapiens, UniProt O43614)
T1 construct: expressed in transfected cells
T1 sequence (O43614 1-444): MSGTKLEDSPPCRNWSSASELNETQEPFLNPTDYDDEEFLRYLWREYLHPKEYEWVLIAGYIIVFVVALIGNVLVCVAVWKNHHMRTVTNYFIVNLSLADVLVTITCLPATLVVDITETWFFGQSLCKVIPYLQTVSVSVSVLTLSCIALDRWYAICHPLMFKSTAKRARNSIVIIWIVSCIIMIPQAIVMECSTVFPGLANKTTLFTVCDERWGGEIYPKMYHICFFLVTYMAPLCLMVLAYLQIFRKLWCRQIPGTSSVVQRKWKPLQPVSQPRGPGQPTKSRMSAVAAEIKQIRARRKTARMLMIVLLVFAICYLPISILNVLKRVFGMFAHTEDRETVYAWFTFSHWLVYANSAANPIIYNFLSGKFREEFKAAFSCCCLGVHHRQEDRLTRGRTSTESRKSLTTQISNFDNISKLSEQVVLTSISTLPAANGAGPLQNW
Experiment: Measurement of orexin type 2 receptor agonist activity (calcium fluorescence, Fluo-4, FDSS)
Assay type: cell-based
Settings: 3 uM test compound; CHO cells expressing human OX2 receptor; DMSO = 0%, 10 nM orexin A (human) = 100%
In short: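 CHO-K1 cells stably expressing human OX2 receptor (residues 1-444) were loaded with Fluo-4 AM plus probenecid. Calcium fluorescence after compound addition was recorded for 1 min 40 s. Activity (%) was scaled between DMSO (0%) and 10 nM orexin A final (100%).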

Row | Compound | OX2R agonist activity (3 uM, %) [%]
1 | CNS(=O)(=O)N[C@@H]1CN2C(=O)N(c3noc4cc(F)cc(-c5c(F)cc(F)cc5F)c34)C[C@@H]2C1(F)F [Example 144, N-{(6R,7aR)-7,7-Difluoro-2-[6-fluoro-4-(2,4,6-trifluorophenyl)-1,2-benzoxazol-3-yl]-3-oxohexahydro-1H-pyrrolo[1,2-c]imidazol-6-yl}-N′-methylsulfuric diamide] | 102
2 | CCOc1cc(-c2c(F)cccc2F)c2c(N3C[C@H]4N(C[C@@H](NS(C)(=O)=O)C4(F)F)C3=O)noc2c1 [Example 145, N-{(6R,7aR)-2-[4-(2,6-difluorophenyl)-6-ethoxy-1,2-benzoxazol-3-yl]-7,7-difluoro-3-oxohexahydro-1H-pyrrolo[1,2-c]imidazol-6-yl}methanesulfonamide] | 105
3 | CCS(=O)(=O)N[C@H]1Cc2cn(-c3nsc4nc(C)cc(-c5c(F)cccc5F)c34)c(=O)n2C1 [Example 152, N-{(6S)-2-[4-(2,6-difluorophenyl)-6-methyl[1,2]thiazolo[5,4-b]pyridin-3-yl]-3-oxo-2,5,6,7-tetrahydro-3H-pyrrolo[1,2-c]imidazol-6-yl}ethanesulfonamide] | 92
4 | CCS(=O)(=O)N[C@@H]1CN2C(=O)N(c3noc4cc(C)cc(-c5c(F)cc(F)cc5F)c34)C[C@@H]2C1(F)F [Example 153, N-{(6R,7aR)-7,7-difluoro-2-[6-methyl-4-(2,4,6-trifluorophenyl)-1,2-benzoxazol-3-yl]-3-oxohexahydro-1H-pyrrolo[1,2-c]imidazol-6-yl}ethanesulfonamide] | 96
5 | CCS(=O)(=O)N[C@@H]1CN2C(=O)N(c3noc4cc(C)cc(-c5c(F)cccc5F)c34)C[C@@H]2C1(F)F [Example 154, N-{(6R,7aR)-2-[4-(2,6-difluorophenyl)-6-methyl-1,2-benzoxazol-3-yl]-7,7-difluoro-3-oxohexahydro-1H-pyrrolo[1,2-c]imidazol-6-yl}ethanesulfonamide] | 98
6 | CCS(=O)(=O)N[C@@H]1Cn2c(cn(-c3noc4cc(C)cc(-c5c(F)cc(F)cc5F)c34)c2=O)C1(F)F [Example 155, N-{(6R)-7,7-difluoro-2-[6-methyl-4-(2,4,6-trifluorophenyl)-1,2-benzoxazol-3-yl]-3-oxo-2,5,6,7-tetrahydro-3H-pyrrolo[1,2-c]imidazol-6-yl}ethanesulfonamide] | 96
7 | CCS(=O)(=O)N[C@@H]1Cn2c(cn(-c3noc4cc(C)cc(-c5c(F)cccc5F)c34)c2=O)C1(F)F [Example 156, N-{(6R)-2-[4-(2,6-difluorophenyl)-6-methyl-1,2-benzoxazol-3-yl]-7,7-difluoro-3-oxo-2,5,6,7-tetrahydro-3H-pyrrolo[1,2-c]imidazol-6-yl}ethanesulfonamide] | 102
8 | CCS(=O)(=O)N[C@@H]1Cn2c(cn(-c3noc4cc(C(F)(F)F)cc(-c5c(F)cc(F)cc5F)c34)c2=O)C1(F)F [Example 157, N-{(6R)-7,7-difluoro-3-oxo-2-[6-(trifluoromethyl)-4-(2,4,6-trifluorophenyl)-1,2-benzoxazol-3-yl]-2,5,6,7-tetrahydro-3H-pyrrolo[1,2-c]imidazol-6-yl}ethanesulfonamide] | 96
9 | CCOc1cc(-c2c(F)cc(F)cc2F)c2c(N3C[C@H]4N(C[C@@H](NS(C)(=O)=O)C4(F)F)C3=O)noc2c1 [Example 160, N-{(6R,7aR)-2-[6-ethoxy-4-(2,4,6-trifluorophenyl)-1,2-benzoxazol-3-yl]-7,7-difluoro-3-oxohexahydro-1H-pyrrolo[1,2-c]imidazol-6-yl}methanesulfonamide] | 99
10 | CCS(=O)(=O)N[C@@H]1CN2C(=O)N(c3noc4cc(C)c(F)c(-c5c(F)cc(F)cc5F)c34)C[C@@H]2C1(F)F [Example 162, N-{(6R,7aR)-7,7-difluoro-2-[5-fluoro-6-methyl-4-(2,4,6-trifluorophenyl)-1,2-benzoxazol-3-yl]-3-oxohexahydro-1H-pyrrolo[1,2-c]imidazol-6-yl}ethanesulfonamide] | 102
11 | CCS(=O)(=O)N[C@@H]1Cn2c(cn(-c3noc4cc(C)c(F)c(-c5c(F)cc(F)cc5F)c34)c2=O)C1(F)F [Example 163, N-{(6R)-7,7-difluoro-2-[5-fluoro-6-methyl-4-(2,4,6-trifluorophenyl)-1,2-benzoxazol-3-yl]-3-oxo-2,5,6,7-tetrahydro-3H-pyrrolo[1,2-c]imidazol-6-yl}ethanesulfonamide] | 103
12 | Cc1cc(-c2c(F)cccc2F)c2c(N3C[C@H]4N(C[C@@H](NS(C)(=O)=O)C4(F)F)C3=O)noc2n1 [Example 164, N-{(6R,7aR)-2-[4-(2,6-difluorophenyl)-6-methyl[1,2]oxazolo[5,4-b]pyridin-3-yl]-7,7-difluoro-3-oxohexahydro-1H-pyrrolo[1,2-c]imidazol-6-yl}methanesulfonamide] | 108

Other lines, results leading:

Row | OX2R agonist activity (3 uM, %) [%] | Compound
13 | 97 | CCS(=O)(=O)N[C@@H]1Cn2c(cn(-c3noc4cc(C(F)F)cc(-c5c(F)cc(F)cc5F)c34)c2=O)C1(F)F [Example 165, N-{(6R)-2-[6-(difluoromethyl)-4-(2,4,6-trifluorophenyl)-1,2-benzoxazol-3-yl]-7,7-difluoro-3-oxo-2,5,6,7-tetrahydro-3H-pyrrolo[1,2-c]imidazol-6-yl}ethanesulfonamide]
14 | 92 | CCS(=O)(=O)N[C@@H]1Cn2c(cn(-c3noc4cc(COC)cc(-c5c(F)cc(F)cc5F)c34)c2=O)C1(F)F [Example 166, N-{(6R)-7,7-difluoro-2-[6-(methoxymethyl)-4-(2,4,6-trifluorophenyl)-1,2-benzoxazol-3-yl]-3-oxo-2,5,6,7-tetrahydro-3H-pyrrolo[1,2-c]imidazol-6-yl}ethanesulfonamide]
15 | 97 | CCS(=O)(=O)N[C@@H]1Cn2c(cn(-c3noc4cc(COC)cc(-c5c(F)cccc5F)c34)c2=O)C1(F)F [Example 167, N-{(6R)-2-[4-(2,6-difluorophenyl)-6-(methoxymethyl)-1,2-benzoxazol-3-yl]-7,7-difluoro-3-oxo-2,5,6,7-tetrahydro-3H-pyrrolo[1,2-c]imidazol-6-yl}ethanesulfonamide]
16 | 102 | CCS(=O)(=O)N[C@@H]1CN2C(=O)N(c3noc4cc(F)c(F)c(-c5c(F)cccc5F)c34)C[C@@H]2C1(F)F [Example 168, N-{(6R,7aR)-2-[4-(2,6-difluorophenyl)-5,6-difluoro-1,2-benzoxazol-3-yl]-7,7-difluoro-3-oxohexahydro-1H-pyrrolo[1,2-c]imidazol-6-yl}ethanesulfonamide]
17 | 103 | CCS(=O)(=O)N[C@@H]1Cn2c(cn(-c3noc4cc(C)c(F)c(-c5c(F)cccc5F)c34)c2=O)C1(F)F [Example 169, N-{(6R)-2-[4-(2,6-difluorophenyl)-5-fluoro-6-methyl-1,2-benzoxazol-3-yl]-7,7-difluoro-3-oxo-2,5,6,7-tetrahydro-3H-pyrrolo[1,2-c]imidazol-6-yl}ethanesulfonamide]
18 | 94 | CCS(=O)(=O)N[C@@H]1Cn2c(cn(-c3noc4cc(F)c(F)c(-c5c(F)cccc5F)c34)c2=O)C1(F)F [Example 170, N-{(6R)-2-[4-(2,6-difluorophenyl)-5,6-difluoro-1,2-benzoxazol-3-yl]-7,7-difluoro-3-oxo-2,5,6,7-tetrahydro-3H-pyrrolo[1,2-c]imidazol-6-yl}ethanesulfonamide]
19 | 100 | CS(=O)(=O)N[C@@H]1CN2C(=O)N(c3noc4cc(F)c(F)c(-c5c(F)cc(F)cc5F)c34)C[C@@H]2C1(F)F [Example 171, N-{(6R,7aR)-2-[5,6-Difluoro-4-(2,4,6-trifluorophenyl)-1,2-benzoxazol-3-yl]-7,7-difluoro-3-oxohexahydro-1H-pyrrolo[1,2-c]imidazol-6-yl}methanesulfonamide]
20 | 98 | CCS(=O)(=O)N[C@@H]1CN2C(=O)N(c3noc4cc(F)c(F)c(-c5c(F)cc(F)cc5F)c34)C[C@@H]2C1(F)F [Example 172, N-{(6R,7aR)-2-[5,6-difluoro-4-(2,4,6-trifluorophenyl)-1,2-benzoxazol-3-yl]-7,7-difluoro-3-oxohexahydro-1H-pyrrolo[1,2-c]imidazol-6-yl}ethanesulfonamide]
21 | 95 | Cc1cc(-c2c(F)cc(F)cc2F)c2c(-n3cc4n(c3=O)C[C@@H](NS(C)(=O)=O)C4(F)F)noc2n1 [Example 174, N-{(6R)-7,7-Difluoro-2-[6-methyl-4-(2,4,6-trifluorophenyl) [1,2]oxazolo [5,4-b]pyridin-3-yl]-3-oxo-2,5,6,7-tetrahydro-3H-pyrrolo[1,2-c]imidazol-6-yl}methanesulfonamide]
22 | 98 | CCS(=O)(=O)N[C@@H]1CN2C(=O)N(c3noc4nc(C)cc(-c5c(F)cc(F)cc5F)c34)C[C@@H]2C1(F)F [Example 175, N-{(6R,7aR)-7,7-difluoro-2-[6-methyl-4-(2,4,6-trifluorophenyl)[1,2]oxazolo[5,4-b]pyridin-3-yl]-3-oxohexahydro-1H-pyrrolo[1,2-c]imidazol-6-yl}ethanesulfonamide]
